Series [1] deals with ovariectomized (OVX) female Sprague Dawley rats. As to the kind of experiment: Serum cholesterol in ovariectomized rats (post-menopausal model), 4 days of daily dosing. The conditions noted are these: for Cholest. % dec. OVX: oral, daily for 4 days. Type of series: in vivo, rat. Here is the method: (§1) In the examples illustrating the methods, a post-menopausal model was used in which effects of different treatments upon circulating lipids were determined.
(§2) Seventy-five day old female Sprague Dawley rats (weight range of 200 to 225 g) were obtained from Charles River Laboratories (Portage, Mich.). The animals were either bilaterally ovariectomized (OVX) or exposed to a Sham surgical procedure at Charles River Laboratories, and then shipped after one week. Upon arrival, they were housed in metal hanging cages in groups of 3 or 4 per cage and had ad libitum access to food (calcium content approximately 0.5%) and water for one week. Room temperature was maintained at 22.2°±1.70° C. with a minimum relative humidity of 40%. The photoperiod in the room was 12 hours light and 12 hours dark.
Dosina Reaimen Tissue Collection. After a one week acclimation period (therefore, two weeks post-OVX) daily dosing with test compound was initiated. 17α-ethynyl estradiol or the test compound were given orally, unless otherwise stated, as a suspension in 1% carboxymethylcellulose or dissolved in 20% cyclodextrin. Animals were dosed daily for 4 days. Following the dosing regimen, animals were weighed and anesthetized with a ketamine: xylazine (2:1, V:V) mixture and a blood sample was collected by cardiac puncture. The animals were then sacrificed by asphyxiation with CO2, the uterus was removed through a midline incision, and a wet uterine weight was determined.
Cholesterol Analysis. Blood samples were allowed to clot at room temperature for 2 hours, and serum was obtained following centrifugation for 10 minutes at 3000 rpm. Serum cholesterol was determined using a Boehringer Mannheim Diagnostics high performance cholesterol assay. Briefly the cholesterol was oxidized to cholest-4-en-3-one and hydrogen peroxide. The hydrogen peroxide was then reacted with phenol and 4-aminophenazone in the presence of peroxidase to produce a p-quinone imine dye, which was read spectrophotemetrically at 500 nm. Cholesterol concentration was then calculated against a standard curve. The entire assay was automated using a Biomek Automated Workstation.

For series [2] the test system is unchanged. Briefly: Wet uterine weight in ovariectomized rats, 4 days of daily dosing. The conditions noted are these: rat, in vivo, po, 0.1 mg/kg/day. Here is the method: as §1, §2
Dosina Reaimen Tissue Collection. After a one week acclimation period (therefore, two weeks post-OVX) daily dosing with test compound was initiated. 17α-ethynyl estradiol or the test compound were given orally, unless otherwise stated, as a suspension in 1% carboxymethylcellulose or dissolved in 20% cyclodextrin. Animals were dosed daily for 4 days. […] The animals were then sacrificed by asphyxiation with CO2, the uterus was removed through a midline incision, and a wet uterine weight was determined.

Series [3] relates to uteri of ovariectomized (OVX) female Sprague Dawley rats. Briefly: Uterine Eosinophil Peroxidase (EPO) Assay. The conditions noted are these: rat, in vivo.
Another series relates to ovariectomized rats. Briefly: Osteoporosis Test Procedure: femur density in ovariectomized rats, 35 days. Type of series: in vivo, rat. The conditions noted are these: oral, in 20% hydroxypropyl β-cyclodextrin, daily for 35 days. Here is the method:
Following the General Preparation Procedure, infra, the rats are treated daily for 35 days (6 rats per treatment group) and sacrificed by decapitation on the 36th day. The 35 day time period is sufficient to allow maximal reduction in bone density, measured as described herein. At the time of sacrifice, the uteri are removed, dissected free of extraneous tissue, and the fluid contents are expelled before determination of wet weight in order to confirm estrogen deficiency associated with complete ovariectomy. […] The uteri are then placed in 10% neutral buffered formalin to allow for subsequent histological analysis. The right femurs are excised and scanned at the distal metaphysis 1 mm from the patellar groove with single photon absorptiometry. Results of the densitometer measurements represent a calculation of bone density as a function of the bone mineral content and bone width. In accordance with the above procedures, compounds of the present invention and ethynyl estradiol (EE2) in 20% hydroxypropyl β-cyclodextrin are orally administered to test animals.

Results on ten molecules are retold here after US6608090B1, “Benzothiophenes with novel basic side chains” (Eli Lilly and Company, priority 1995, dated 2003).

For the molecule `COC[C@@H]1CCCN1CCOc1ccc(C(=O)c2c(-c3ccc(O)cc3)sc3cc(O)ccc23)cc1`, the “Cholest. % dec. OVX” value is listed as 30.2% in series [1] (0.1 mg/kg), 65.4% in series [1] (1 mg/kg) and 80.3% in series [1] (10 mg/kg).

Regarding `O=C(c1ccc(OCCN2CCC[C@H]2CO)cc1)c1c(-c2ccc(O)cc2)sc2cc(O)ccc12`, the “Cholest. % dec. OVX” value in series [1] (0.1 mg/kg) is recorded as 46.7%; in series [1] (1 mg/kg) it was 73.7%; in series [1] (10 mg/kg) it was 74.5%.

As for `CC1CCCC(C)N1CCOc1ccc(C(=O)c2c(-c3ccc(O)cc3)sc3cc(O)ccc23)cc1` (stereo not shown), the “Cholest. % dec. OVX” value was 41.5% in series [1] (0.1 mg/kg), 62.3% in series [1] (1 mg/kg) and 76.9% in series [1] (10 mg/kg).

Turning to `C#C[C@]1(O)CC[C@H]2[C@@H]3CCc4cc(O)ccc4[C@H]3CC[C@@]21C` [EE2, 17α-ethynyl estradiol], the “uterine weight compared with ovariectomized test animals (in words)” value in series [2] is “substantially greater”. Also, the “eosinophil infiltration into the uterus (stromal layer), in words” value in series [3] was “substantial, expected increase in esosinophils infiltration”. The “loss of femur density (bone loss) after ovariectomy, in words” value in the series on ovariectomized rats is recorded as “prevents this loss”. Moreover, the “effect on serum cholesterol (in words)” value in series [1] (orally administered at 0.1 mg/Kg/day) is reported as “caused a decrease in serum cholesterol”.

With `CC1CCN(CCOc2ccc(C(=O)c3c(-c4ccc(O)cc4)sc4cc(O)ccc34)cc2)CC1`, the results for the “Cholest. % dec. OVX” value in series [1] (0.1 mg/kg), in series [1] (1 mg/kg) and in series [1] (10 mg/kg) were 43.2%, 71.0% and 51.6%, respectively.

Consider `CC1CC(C)CN(CCOc2ccc(C(=O)c3c(-c4ccc(O)cc4)sc4cc(O)ccc34)cc2)C1` (racemic), for which the “Cholest. % dec. OVX” value in series [1] (0.1 mg/kg) turned out to be 50.6%; in series [1] (1 mg/kg), 69.7%; in series [1] (10 mg/kg) it was 81.6%.

For `C[C@@H]1C[C@H](C)CN(CCOc2ccc(C(=O)c3c(-c4ccc(O)cc4)sc4cc(O)ccc34)cc2)C1`, the results for the “Cholest. % dec. OVX” value in series [1] (0.1 mg/kg), in series [1] (1 mg/kg) and in series [1] (10 mg/kg) were 13.8%, 66.8% and 85.5%, respectively.

On to `CC1(C)CCCN(CCOc2ccc(C(=O)c3c(-c4ccc(O)cc4)sc4cc(O)ccc34)cc2)C1`, for which the “Cholest. % dec. OVX” value in series [1] (0.1 mg/kg) is given as 25.1%; in series [1] (1 mg/kg), 58.6%; in series [1] (10 mg/kg), 50.9%.

`CC1(C)CCN(CCOc2ccc(C(=O)c3c(-c4ccc(O)cc4)sc4cc(O)ccc34)cc2)CC1`: the “Cholest. % dec. OVX” value in series [1] (0.1 mg/kg) is 14.5%; in series [1] (1 mg/kg) it was 25.9%; in series [1] (10 mg/kg), 65.8%.

For `O=C(c1ccc(OCCN2CCC[C@@H]2CO)cc1)c1c(-c2ccc(O)cc2)sc2cc(O)ccc12`, the “Cholest. % dec. OVX” value in series [1] (0.1 mg/kg) stood at 42.0%; in series [1] (1 mg/kg), 40.6%; in series [1] (10 mg/kg), 71.9%.
